Measured values reported in patent US8778643B2, “Methods for increasing lipid levels and producing triacylglycerols in algae” (priority 2012, dated 2014).
Counter-ions that a name gives are not always drawn. Like-named read-outs stand apart in the source and are kept apart here.

Key:
Nannochloris sp. = assay: Microplate assay: growth (absorbance 680 nm) and intracellular lipids (Nile Red fluorescence); type: cell-based; settings: for Absorbance (percent increase) / Nile Red percent increase: initial microplate screen, relative to control
Experimental: (§1) Stock cultures were aerated by stirring with bubbling air (homemade manifold with Petco air pump, 2-4% CO2) or by orbital shaking (Thermo Scientific MAXQ 2000) at a constant speed of 150 rpm at 22±3° C. with a 16:8 hour light/dark cycle. Stocks were kept at stationary phase for use. Algae were prepared as dictated by culture center.
(§2) Compounds were selected based on reported biological activity in non-microalgae organisms. To ensure that compounds retained their quality, they were stored under advised conditions after purchasing from the manufacturer. Solutions of all assay compounds were prepared as 10 mM stock solutions by dissolving in DMSO in 2-dram amber vials and then stored in darkness −20° C. 96-well PCR plates were used to create a stock plate layout that was then transferred to the algae microplates. A plate map was used to distribute each compound to a well based on molecule name, collection number, and CAS number. For 20 μM and 200 nM assay plates, 10 mM compound stock in DMSO was diluted into plate maps of 5 mM and 50 μM assay stocks, respectively.
(§3) All materials for assay experiments were autoclaved before each use to maintain axenic algae cultures. Algae species were checked for homogeneity using a TS-100 light microscope (Nikon, Japan). […] Diluted stock solutions were made immediately prior to use for consistency and optimal plate growth. Cell density was measured on a Thermo Scientific Genesys 10S Vis Spectrophotometer (ThermoFisher, San Jose), using a 1 mL cuvette at 680 nm.
(§4) Plates were originally run in triplicate, before replicates were increased to quadruplicate, along with a separate control plate to compare growth. Due to extensive evaporation in exterior wells over time, our unique algae plate layout was designed to use the 60 interior wells out of 96 wells for the experiment. The 36 outer wells were filled with Millipore water and media to prevent evaporation and edge effects in the inner algae wells, as well as serve as blanks. The 60 wells with algae contained a total volume of 251 μL (100 μL of media+DMSO compound stock +150 μL dilute algae stock). For 20 μM and 200 nM assay plates, 10 mM compound stock in DMSO is diluted into plate maps of 5 mM and 50 μM assay stocks, respectively. […] Plates were parafilmed during growth to limit the amount of evaporation that can occur. Plates were numbered, and numerically ordered to ensure they got the same shaker space.
(§5) The shakers are kept at a constant shaking of 150 rpm. Ambient temperature is 22±3° C.

[1] = tested on: Phaeodactylum tricornutum; assay: as above; type: cell-based; settings: for % Inc: increase of lipid production; for % Inc / % change in abs / % in NR fl / Nile Red Fluorescence % Increase: P. tricornutum; for Nile Red Fluorescence % Increase: compounds tested at 200 nM, initial screening, p<0.05
Experimental: as §1, §2, §3, §4, §5

Nannochloropsis salina = settings: for % Inc: increase of lipid production; for % Inc / Nile Red Fluorescence % Increase / % change in abs / % in NR fl / % Lipid increase based on Nile red fluorescence intensity / % Increase based on Nile Red Fluorescence Intensity: N. salina; for Nile Red Fluorescence % Increase: compounds tested at 20 μM, initial screening, p<0.05; for % Lipid increase based on Nile red fluorescence intensity: DMSO, t=day 0; for % Increase based on Nile Red Fluorescence Intensity: DMSO delivery, added t=day 0
Experimental: as §1, §2, §3, §4, §5

[2] = Nannochloris sp., compounds tested at 200 nM, initial screening, p<0.05
[3] = Nannochloris sp., compounds tested at 20 μM, initial screening, p<0.05
[4] = 200 nM, initial microplate screen, relative to control

C=C1C[C@]23C[C@@]1(O)CC[C@H]2[C@@]12C=C[C@H](O)[C@@](C)(C(=O)O1)[C@H]2[C@@H]3C(=O)O [Giberellic acid, (3S,3aS,4S,4aS,6S,8aR,8bR,11S)-6,11-Dihydroxy-3-methyl-12-methylene-2-oxo-4a,6-ethano-3,8bprop-1-enoperhydroindeno[1,2-b]furan-4-ca]
Absorbance (percent increase) (Nannochloris sp.; 200 nM): −1.1%
Nile Red percent increase (Nannochloris sp.; 200 nM): 70.4%

c1ccc(CNc2ncnc3[nH]cnc23)cc1 [Benzylamino Purine]
% Inc ([1]; best conc. 40 μM): 120.94%

Cc1ncc(C[n+]2csc(CCO)c2C)c(N)n1 [Thiamine, Aneurine hydrochloride, Vitamin B1 hydrochloride]
Absorbance (percent increase) (Nannochloris sp.; 200 nM): −12.1%
Nile Red percent increase (Nannochloris sp.; 200 nM): 122.6%

CCCCCCCCCCCCCCCC(=O)C(F)(F)F [PTFK, 1,1,1-Trifluoro-2-heptadecanone]
% change in abs ([1]; 13 nM): 3.22%
% in NR fl ([1]; 13 nM): 70.44%
% change in abs ([1]; 41.2 nM): 5.05%
% in NR fl ([1]; 41.2 nM): 67.59%

Oc1cc(O)c2c(c1)O[C@H](c1ccc(O)c(O)c1)[C@@H](O)C2 [(+)-Catechin, (2R,3S)-2-(3,4-dihydroxyphenyl)-3,4-dihydro-2H-chromene-3,5,7-triol]
% Inc (Nannochloropsis salina; best conc. 39 nM): 84.21%

Indole acetic acid
Nile Red Fluorescence % Increase (Nannochloris sp.): 95.4%

CCC(C)Nc1ccc(NC(C)CC)cc1 (centres unmarked) [N,N′-di-sec-butyl-p-phenylenediamine, 1-N,4-N-di(butan-2-yl)benzene-1,4-diamine]
% Inc ([1]; best conc. 156 nM): 39.51%

O=C(O)CC(O)(CC(=O)O)C(=O)O [Citric acid, 2-hydroxypropane-1,2,3-tricarboxylic acid]
Absorbance (percent increase) (Nannochloris sp.; 200 nM): −6.5%
Nile Red percent increase (Nannochloris sp.; 200 nM): 55.41%

CC(=O)N1CCN(c2ccc(OC[C@H]3CO[C@](Cn4ccnc4)(c4ccc(Cl)cc4Cl)O3)cc2)CC1 (relative stereo) [Ketoconazole, cis-1-Acetyl-4-[4-[[2-(2,4-dichlorophenyl)-2-(1H-imidazol-1-ylmethyl)-1,3-dioxolan-4-yl]methoxy]phenyl]piperazine]
Nile Red Fluorescence % Increase (Nannochloris sp.; [2]): 258.9%
Nile Red Fluorescence % Increase (Nannochloropsis salina): 32.0%

CC/C=C\C[C@H]1C(=O)CC[C@@H]1CC(=O)O [Jasmonic acid, (1R,2R)-3-Oxo-2-(2Z)-2-pentenyl-cyclopentaneacetic acid]
Absorbance (percent increase) (Nannochloris sp.; 200 nM): −7.6%
Nile Red percent increase (Nannochloris sp.; 200 nM): 87.5%
Nile Red Fluorescence % Increase (Nannochloris sp.; [2]): 80.5%

CC[C@H](CO)Nc1nc(NCc2ccccc2)c2ncn(C(C)C)c2n1 [Roscovitine]
Nile Red Fluorescence % Increase (Nannochloris sp.): 30.8%

O=c1c(O)c(-c2ccc(O)c(O)c2)oc2cc(O)cc(O)c12 [Quercetin, 2-(3,4-dihydroxyphenyl)-3,5,7-trihydroxy-4H-chromen-4-one]
Absorbance (percent increase) (Nannochloris sp.; 200 nM): −1.6%
Nile Red percent increase (Nannochloris sp.; 200 nM): 63.5%

O=c1cc(-c2ccc(O)cc2)oc2cc(O)cc(O)c12 [Apigenin, 5,7-Dihydroxy-2-(4-hydroxyphenyl)-4H-1-benzopyran-4-one]
Absorbance (percent increase) (Nannochloris sp.; 20 μM): −7.3%
Nile Red percent increase (Nannochloris sp.; 20 μM): 59.9%
Nile Red Fluorescence % Increase (Nannochloris sp.; [3]): 136.7%
Nile Red Fluorescence % Increase (Nannochloropsis salina): 34.3%
% Inc (Nannochloropsis salina; best conc. 39 nM): 90.17%

O=C(Oc1ccc([N+](=O)[O-])cc1)N1CCC(C(O)(c2ccc3c(c2)OCO3)c2ccc3c(c2)OCO3)CC1 [JZL 184 hydrate, 4-nitrophenyl-4-[bis(1,3-benzodioxol-5-yl)(hydroxy)methyl]piperidine-1-carboxylate]
% change in abs (Nannochloropsis salina; 3.3 μM): −12.15%
% in NR fl (Nannochloropsis salina; 3.3 μM): 95.70%
% change in abs (Nannochloropsis salina; 10 μM): 13.75%
% in NR fl (Nannochloropsis salina; 10 μM): 86.72%
% change in abs (Nannochloropsis salina; 40 μM): 0.61%
% in NR fl (Nannochloropsis salina; 40 μM): 118.99%
% Lipid increase based on Nile red fluorescence intensity (Nannochloropsis salina; 40 μM): 119%
% Increase based on Nile Red Fluorescence Intensity (Nannochloropsis salina; 40 μM): 119%

COc1ccc2[nH]cc(CCNC(C)=O)c2c1 [Melatonin, N-Acetyl-5-methoxytryptamine]
% Inc ([1]; best conc. 40 μM): 47.80%

CC/C=C\CC1C(=O)CCC1CC(=O)OC (centres unmarked) [Methyl jasmonate]
% Lipid increase based on Nile red fluorescence intensity (Nannochloropsis salina; 13 nM): 85%
% Increase based on Nile Red Fluorescence Intensity (Nannochloropsis salina; 13 nM): 85%

O=C1C(Cl)=C(NCCN2CCOCC2)C(=O)c2ncccc21 [CDC25]
Nile Red Fluorescence % Increase (Nannochloris sp.; [2]): 28.2%
Nile Red Fluorescence % Increase (Nannochloris sp.; [3]): 130.9%

NC(=O)c1cccc(-c2cccc(OC(=O)NC3CCCCC3)c2)c1 [FAAH Inhibitor II, 3′-Carbamoyl-biphenyl-3-yl-cyclohexylcarbamate]
% Increase based on Nile Red Fluorescence Intensity (Nannochloris sp.): 167%
% Lipid increase based on Nile red fluorescence intensity (Nannochloris sp.; Nannochloris sp., 0.6 nM, (water), t=day 0): 182%
% Increase based on Nile Red Fluorescence Intensity (Nannochloris sp.; Nannochloris sp., 0.2 nM, dissolved in water, added t=day 0): 145%
% Increase based on Nile Red Fluorescence Intensity (Nannochloris sp.; Nannochloris sp., 0.6 nM, dissolved in water, added t=day 0): 182%
% Increase based on Nile Red Fluorescence Intensity (Nannochloris sp.; Nannochloris sp., 49 nM, dissolved in water, added t=day 0): 154%
% Increase based on Nile Red Fluorescence Intensity (Nannochloris sp.; Nannochloris sp., 1.3 μM, dissolved in water, added t=day 0): 144%

C/C=C/C/C=C/CCC(=O)[C@H]1O[C@H]1C(N)=O [Cerulenin, (2R,3S)-3-[(4E,7E)-Nona-4,7-dienoyl]oxirane-2-carboxamide]
Absorbance (percent increase) (Nannochloris sp.; 200 nM): −13.2%
Nile Red percent increase (Nannochloris sp.; 200 nM): 94.6%
Nile Red Fluorescence % Increase (Nannochloris sp.; [2]): 107.9%

c1ccc(CNc2ncnc3nc[nH]c23)cc1 [Benzylaminopurine, N-(phenylmethyl)-7H-purin-6-amine]
Absorbance (percent increase) [1, 4]: −14.6%
Nile Red percent increase [1, 4]: 105.9%
Nile Red Fluorescence % Increase [1]: 105.9%

COc1ccc2cc([C@H](C)C(=O)O)ccc2c1 [Naproxen, (S)-(+)-2-(6-Methoxy-2-naphthyl)propionic acid]
% Inc (Nannochloropsis salina; best conc. 156 nM): 67.44%

Cn1c(=O)c2c(ncn2C)n(C)c1=O [Caffeine, 1,3,7-trimethyl-1H-purine-2,6(3H,7H)-dione]
Absorbance (percent increase) (Nannochloris sp.; 200 nM): −7.5%
Nile Red percent increase (Nannochloris sp.; 200 nM): 60.4%

c1coc(CNc2ncnc3nc[nH]c23)c1 [Kinetin, N^6-furfuryladenine]
Absorbance (percent increase) (Nannochloris sp.; 200 nM): −9.0%
Nile Red percent increase (Nannochloris sp.; 200 nM): 72.4%
Nile Red Fluorescence % Increase [1]: 25.2%
% Inc ([1]; best conc. 39 nM): 76.29%

CCNc1cc(N[C@H]2CC[C@H](O)CC2)nc(Nc2ccc3c(ccn3Cc3ccccc3)c2)n1 [CDK4 I4, trans-4-((6-(ethylamino)-2-((1-(phenylmethyl)-1H-indol-5-yl)amino)-4-pyrimidinyl)amino)-cyclohexanol]
Nile Red percent increase (Nannochloropsis salina; 40 μM, dose-response microplate screen): 144%
% Inc (Nannochloropsis salina; best conc. 40 μM): 144.22%

CCNc1nc(Cl)nc(NC(C)C)n1 [Atrazane, 1-Chloro-3-ethylamino-5-isopropylamino-2,4,6-triazine]
Absorbance (percent increase) (Nannochloris sp.; 200 nM): −1.7%
Nile Red percent increase (Nannochloris sp.; 200 nM): 86.2%

O=C1Cc2c([nH]c3ccc(Br)cc23)-c2ccccc2N1 [Kenpaulllone]
Nile Red Fluorescence % Increase (Nannochloris sp.; [2]): 84.2%

O=C1O[C@H]([C@@H](O)CO)C(O)=C1O [Ascorbic acid, (2R)-2-[(1S)-1,2-dihydroxyethyl]-3,4-dihydroxy-2H-furan-5-one]
% Inc ([1]; best conc. 10 nM): 57.28%
